The source of these data is US10030020B2, “Spirocycle compounds and methods of making and using same” (Abide Therapeutics, Inc., priority 2016, dated 2018).

Format in all cases: biochemical
The target of one experiment is FAAH (Mus musculus (Mouse), UniProt O08914). Kind of experiment: In vitro competitive activity-based protein profiling (mouse brain membrane fraction or cell lysates), FAAH band. The conditions noted are these: mouse proteome; for inhibition at 1 µM: read-out: FAAH % Inh 1 μM (mouse); for IC50: competitive ABPP. In a few lines:
(§1)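 Competitive ABPP: proteome 1.0 mg/mL protein + inhibitor, 30 min, 37° C; FP-Rh probe (stock 50 μM in DMSO) added, 30 min, 37° C; SDS quench, SDS-PAGE, fluorescent band intensity read.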

In a further experiment the target is ABHD6 (Mus musculus (Mouse), UniProt Q8R2Y0). Kind of experiment: In vitro competitive activity-based protein profiling (mouse brain membrane fraction or cell lysates), ABHD6 band. The conditions noted are these: mouse proteome; for inhibition at 1 µM: read-out: ABHD6 % Inh 1 μM (mouse); for IC50: competitive ABPP. In a few lines: as §1
The target in a further experiment is MAGL (Mus musculus (Mouse), UniProt O35678). Kind of experiment: In vitro competitive activity-based protein profiling (mouse brain membrane fraction or cell lysates), MAGL band. Conditions: mouse proteome; for inhibition at 1 µM: read-out: MAGL % Inh 1 μM (mouse); for IC50: competitive ABPP. The protocol:
In Vitro Competitive Activity-Based Protein Profiling.
Proteomes (mouse brain membrane fraction or cell lysates) (50 μL, 1.0 mg/mL total protein concentration) were preincubated with varying concentrations of inhibitors at 37° C. After 30 min, FP—Rh (1.0 μL, 50 μM in DMSO) was added and the mixture was incubated for another 30 min at 37° C. Reactions were quenched with SDS loading buffer (50 μL-4×) and run on SDS-PAGE.

FAAH, sequence (O08914 whole entry): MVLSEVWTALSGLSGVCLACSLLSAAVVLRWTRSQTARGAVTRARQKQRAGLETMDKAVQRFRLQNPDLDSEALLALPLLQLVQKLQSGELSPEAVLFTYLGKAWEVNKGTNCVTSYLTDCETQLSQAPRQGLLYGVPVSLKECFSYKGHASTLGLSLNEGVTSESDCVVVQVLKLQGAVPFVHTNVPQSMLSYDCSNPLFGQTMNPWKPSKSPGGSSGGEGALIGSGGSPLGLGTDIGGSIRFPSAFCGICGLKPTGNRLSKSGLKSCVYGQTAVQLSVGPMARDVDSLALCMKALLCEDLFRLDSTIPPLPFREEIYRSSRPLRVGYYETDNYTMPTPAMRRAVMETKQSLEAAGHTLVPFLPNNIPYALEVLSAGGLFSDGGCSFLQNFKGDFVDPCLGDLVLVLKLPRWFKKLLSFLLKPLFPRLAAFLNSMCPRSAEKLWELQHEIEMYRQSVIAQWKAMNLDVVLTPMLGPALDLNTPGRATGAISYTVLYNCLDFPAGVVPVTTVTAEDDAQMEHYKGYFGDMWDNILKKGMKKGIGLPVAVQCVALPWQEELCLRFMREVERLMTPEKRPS
ABHD6, sequence (Q8R2Y0 whole entry): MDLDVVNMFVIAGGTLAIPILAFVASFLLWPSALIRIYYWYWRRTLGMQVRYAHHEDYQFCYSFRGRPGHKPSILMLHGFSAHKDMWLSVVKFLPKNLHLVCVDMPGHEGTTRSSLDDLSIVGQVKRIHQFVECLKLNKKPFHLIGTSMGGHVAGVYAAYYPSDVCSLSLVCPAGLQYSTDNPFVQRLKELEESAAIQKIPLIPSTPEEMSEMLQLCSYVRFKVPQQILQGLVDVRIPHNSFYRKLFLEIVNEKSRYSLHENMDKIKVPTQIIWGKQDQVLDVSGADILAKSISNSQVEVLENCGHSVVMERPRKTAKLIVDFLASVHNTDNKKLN
MAGL, sequence (O35678 whole entry): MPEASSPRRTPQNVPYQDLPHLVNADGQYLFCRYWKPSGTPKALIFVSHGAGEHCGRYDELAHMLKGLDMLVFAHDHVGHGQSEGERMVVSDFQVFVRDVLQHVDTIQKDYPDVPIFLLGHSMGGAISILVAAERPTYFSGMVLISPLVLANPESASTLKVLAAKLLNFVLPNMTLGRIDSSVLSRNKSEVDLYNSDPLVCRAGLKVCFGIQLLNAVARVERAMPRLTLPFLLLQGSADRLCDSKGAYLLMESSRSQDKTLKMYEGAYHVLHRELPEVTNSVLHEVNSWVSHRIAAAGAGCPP

As usually defined, the IC50 is the concentration that inhibits the measured activity by half. For `CCN1CCc2cccc(CN3CCC4(CCN(C(=O)OC(C(F)(F)F)C(F)(F)F)CC4)C3)c2C1` [Example 159, 1,1,1,3,3,3-Hexafluoropropan-2-yl 2-((2-ethyl-1,2,3,4-tetrahydroisoquinolin-8-yl)methyl)-2,8-diazaspiro[4.5]decane-8-carboxylate], the inhibition at 1 µM was under 25% at FAAH, at least 75% at ABHD6 and over 75% at MAGL. The results for the IC50 on FAAH, on ABHD6 and on MAGL were over 1 µM, over 1 µM and under 0.1 µM, respectively.
For `CC(=O)N1CCc2cccc(CN3CCC4(CCN(C(=O)OC(C(F)(F)F)C(F)(F)F)CC4)C3)c2C1` [Example 160, 1,1,1,3,3,3-Hexafluoropropan-2-yl 2-((2-acetyl-1,2,3,4-tetrahydroisoquinolin-8-yl)methyl)-2,8-diazaspiro[4.5]decane-8-carboxylate], the inhibition at 1 µM was under 25% on FAAH, at least 75% at ABHD6 and over 75% at MAGL. Also, the IC50 at FAAH is over 1 µM; on ABHD6, under 0.1 µM; at MAGL, under 0.1 µM.
In the case of `CS(=O)(=O)N1CCc2cccc(CN3CCC4(CCN(C(=O)OC(C(F)(F)F)C(F)(F)F)CC4)C3)c2C1` [Example 161, 1,1,1,3,3,3-hexafluoropropan-2-yl 2-((2-(methylsulfonyl)-1,2,3,4-tetrahydroisoquinolin-8-yl)methyl)-2,8-diazaspiro[4.5]decane-8-carboxylate], the inhibition at 1 µM is under 25% at FAAH, at least 75% at ABHD6 and over 75% on MAGL. Besides, the IC50 at FAAH was over 1 µM; at ABHD6 it was under 0.1 µM; on MAGL, under 0.1 µM.
Turning to `CC(C)N1CCc2cccc(CN3CCC4(CCN(C(=O)OC(C(F)(F)F)C(F)(F)F)CC4)C3)c2C1` [Example 162, 1,1,1,3,3,3-Hexafluoropropan-2-yl 2-((2-isopropyl-1,2,3,4-tetrahydroisoquinolin-8-yl)methyl)-2,8-diazaspiro[4.5]decane-8-carboxylate], the inhibition at 1 µM at FAAH is under 25%; on ABHD6, at least 75%; at MAGL it was over 75%. Besides, the IC50 on FAAH is over 1 µM; at ABHD6 it was 0.1 to 1 µM; on MAGL, under 0.1 µM.
On to `O=C(OC(C(F)(F)F)C(F)(F)F)N1CCC2(CCN(Cc3cccc4c3CN(C3CC3)CC4)C2)CC1` [Example 163, 1,1,1,3,3,3-Hexafluoropropan-2-yl 2-((2-cyclopropyl-1,2,3,4-tetrahydroisoquinolin-8-yl)methyl)-2,8-diazaspiro[4.5]decane-8-carboxylate], for which the results for the inhibition at 1 µM on FAAH, on ABHD6 and at MAGL were under 25%, 25 to 75% and over 75%, respectively. Also, the IC50 was over 1 µM on FAAH, 0.1 to 1 µM at ABHD6 and under 0.1 µM on MAGL.
For the molecule `CC(C)CN1CCc2cccc(CN3CCC4(CCN(C(=O)OC(C(F)(F)F)C(F)(F)F)CC4)C3)c2C1` [Example 164, 1,1,1,3,3,3-Hexafluoropropan-2-yl 2-((2-isobutyl-1,2,3,4-tetrahydroisoquinolin-8-yl)methyl)-2,8-diazaspiro[4.5]decane-8-carboxylate], the inhibition at 1 µM at FAAH is under 25%; on ABHD6, at least 75%; at MAGL it was over 75%. Also, the values for the IC50 on FAAH, on ABHD6 and at MAGL were over 1 µM, 0.1 to 1 µM and under 0.1 µM, respectively.
`CN1CCC(Oc2cc(C(F)(F)F)ccc2CN2CCCC23CCN(C(=O)OC(C(F)(F)F)C(F)(F)F)CC3)CC1` [Example 165, 1,1,1,3,3,3-Hexafluoropropan-2-yl 1-(2-(1-methylpiperidin-4-yloxy)-4-(trifluoromethyl)benzyl)-1,8-diazaspiro[4.5]decane-8-carboxylate]: the inhibition at 1 µM is under 25% on FAAH, 25 to 75% at ABHD6 and over 75% on MAGL. Also, the results for the IC50 on FAAH, at ABHD6 and at MAGL were over 1 µM, over 1 µM and under 0.1 µM, respectively.
`O=C(COc1cc(C(F)(F)F)ccc1CN1CCCC12CCN(C(=O)OC(C(F)(F)F)C(F)(F)F)CC2)N1CCCC1` [Example 167, 1,1,1,3,3,3-Hexafluoropropan-2-yl 1-(2-(2-oxo-2-(pyrrolidin-1-yl)ethoxy)-4-(trifluoromethyl)benzyl)-1,8-diazaspiro[4.5]decane-8-carboxylate]: the figures for the inhibition at 1 µM on FAAH, at ABHD6 and on MAGL were under 25%, 25 to 75% and over 75%, respectively. Moreover, the IC50 at FAAH is over 1 µM; on ABHD6, over 1 µM; on MAGL, under 0.1 µM.
As for `O=C(OC(C(F)(F)F)C(F)(F)F)N1CCC2(CCCN2Cc2ccc(C(F)(F)F)cc2OC2CCOCC2)CC1` [Example 169, 1,1,1,3,3,3-Hexafluoropropan-2-yl 1-(2-(tetrahydro-2H-pyran-4-yloxy)-4-(trifluoromethyl)benzyl)-1,8-diazaspiro[4.5]decane-8-carboxylate], the inhibition at 1 µM is under 25% on FAAH, 25 to 75% on ABHD6 and over 75% at MAGL. Besides, the IC50 on FAAH is over 1 µM; at ABHD6, over 1 µM; at MAGL it was under 0.1 µM.
As for `O=C(OC(C(F)(F)F)C(F)(F)F)N1CCC2(CCCN2Cc2ccc(C(F)(F)F)cc2Oc2nc3ccccc3s2)CC1` [Example 171, 1,1,1,3,3,3-Hexafluoropropan-2-yl 1-(2-(benzo[d]thiazol-2-yloxy)-4-(trifluoromethyl)benzyl)-1,8-diazaspiro[4.5]decane-8-carboxylate], the inhibition at 1 µM on FAAH was under 25%; at ABHD6, under 25%; at MAGL it was over 75%. Besides, the IC50 on FAAH is over 1 µM; on ABHD6 it was over 1 µM; on MAGL it was 0.1 to 1 µM.
On to `O=C(OC(C(F)(F)F)C(F)(F)F)N1CCC2(CCCN2Cc2ccc(C(F)(F)F)cc2OC2CCS(=O)(=O)CC2)CC1` [Example 175, 1,1,1,3,3,3-Hexafluoropropan-2-yl 1-(2-((1,1-dioxidotetrahydro-2H-thiopyran-4-yl)oxy)-4-(trifluoromethyl)benzyl)-1,8-diazaspiro[4.5]decane-8-carboxylate], for which the inhibition at 1 µM at FAAH was under 25%; at ABHD6, under 25%; at MAGL, over 75%. The IC50 on FAAH is over 1 µM; on ABHD6, over 1 µM; on MAGL, under 0.1 µM.
Take `NC(=O)c1ccc(CN2CCCC23CCN(C(=O)OC(C(F)(F)F)C(F)(F)F)CC3)cc1C(F)(F)F` [Example 181, 1,1,1,3,3,3-Hexafluoropropan-2-yl 1-(4-carbamoyl-3-(trifluoromethyl)benzyl)-1,8-diazaspiro[4.5]decane-8-carboxylate]: the inhibition at 1 µM is under 25% at FAAH, 25 to 75% at ABHD6 and over 75% on MAGL. The IC50 at FAAH is over 1 µM; on ABHD6 it was 0.1 to 1 µM; at MAGL, under 0.1 µM.
For the molecule `CC1(C)CC2(CCN(C(=O)OC(C(F)(F)F)C(F)(F)F)CC2)CN1Cc1cccc(N2CCOCC2)c1Cl` [Example 185, 1,1,1,3,3,3-hexafluoropropan-2-yl 2-(2-chloro-3-morpholinobenzyl)-3,3-dimethyl-2,8-diazaspiro[4.5]decane-8-carboxylate], the results for the inhibition at 1 µM at FAAH, on ABHD6 and at MAGL were under 25%, at least 75% and over 75%, respectively. Moreover, the IC50 at FAAH is over 1 µM; on ABHD6, 0.1 to 1 µM; on MAGL it was 0.1 to 1 µM.
As to `CC1(C)CC2(CCN(C(=O)OC(C(F)(F)F)C(F)(F)F)CC2)CN1Cc1cc(Cl)cc(N2CCOCC2)c1` [Example 186, 1,1,1,3,3,3-Hexafluoropropan-2-yl 2-(3-chloro-5-morpholinobenzyl)-3,3-dimethyl-2,8-diazaspiro[4.5]decane-8-carboxylate], the inhibition at 1 µM is under 25% on FAAH, 25 to 75% at ABHD6 and over 75% at MAGL. For the same molecule, the IC50 at FAAH is over 1 µM; on ABHD6 it was 0.1 to 1 µM; at MAGL, 0.1 to 1 µM.
On to `CC1(C)CC2(CCN(C(=O)OC(C(F)(F)F)C(F)(F)F)CC2)CN1Cc1cc(Cl)ccc1N1CCOCC1` [Example 187, 1,1,1,3,3,3-Hexafluoropropan-2-yl 2-(5-chloro-2-morpholinobenzyl)-3,3-dimethyl-2,8-diazaspiro[4.5]decane-8-carboxylate], for which the inhibition at 1 µM on FAAH is under 25%; at ABHD6, at least 75%; at MAGL it was over 75%. The IC50 on FAAH was over 1 µM; at ABHD6, 0.1 to 1 µM; at MAGL, under 0.1 µM.
Consider `CC1(C)CC2(CCN(C(=O)OC(C(F)(F)F)C(F)(F)F)CC2)CN1Cc1cc(N2CCOCC2)cc(C(F)(F)F)c1` [Example 188, 1,1,1,3,3,3-Hexafluoropropan-2-yl 3,3-dimethyl-2-(3-morpholino-5-(trifluoromethyl)benzyl)-2,8-diazaspiro[4.5]decane-8-carboxylate], for which the inhibition at 1 µM is under 25% on FAAH, 25 to 75% on ABHD6 and over 75% on MAGL. In addition, the IC50 at FAAH is over 1 µM; on ABHD6, 0.1 to 1 µM; at MAGL it was 0.1 to 1 µM.
